Measurements taken from paper PMC5748027, “Computer-aided design of multi-target ligands at A1R, A2AR and PDE10A, key proteins in neurodegenerative diseases” (Journal of Cheminformatics, 2017).

What was measured:
[1] = target: T1, human PDE7B (Homo sapiens, UniProt Q9NP56); test: Phosphodiesterase activity, AD293 cells transiently transfected with human PDE7B; format: biochemical; conditions: for inhibition at 10 µM: 10 µM compound, read-out: Percentage inhibition at 10µM (PDE7B)
T1 construct: expressed in transfected cells; host or cells: AD293 (transient transfection)
T1 sequence (Q9NP56 whole entry): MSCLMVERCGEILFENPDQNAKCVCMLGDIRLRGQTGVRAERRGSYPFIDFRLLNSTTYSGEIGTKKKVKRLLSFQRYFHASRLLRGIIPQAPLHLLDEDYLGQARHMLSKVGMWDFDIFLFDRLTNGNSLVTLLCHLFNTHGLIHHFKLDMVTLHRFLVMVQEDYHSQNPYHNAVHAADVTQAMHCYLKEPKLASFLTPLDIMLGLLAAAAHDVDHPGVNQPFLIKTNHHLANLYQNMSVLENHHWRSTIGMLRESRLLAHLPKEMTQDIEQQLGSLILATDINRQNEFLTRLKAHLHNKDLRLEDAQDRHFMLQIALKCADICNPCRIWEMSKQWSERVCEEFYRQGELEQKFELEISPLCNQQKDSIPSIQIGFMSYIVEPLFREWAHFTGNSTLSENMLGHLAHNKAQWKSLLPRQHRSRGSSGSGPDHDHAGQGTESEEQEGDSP
Method: (§1) The activity measurements against the phosphodiesterases PDE7A, PDE7B, PDE9A and PDE10A were performed using AD293 cells that were transiently and separately transfected with human PDE7A, PDE7B, PDE9A, and PDE10A following the procedure described by Shipe et al..

[2] = target: T2, human PDE7A (Homo sapiens, UniProt Q13946); test: Phosphodiesterase activity, AD293 cells transiently transfected with human PDE7A; format: biochemical; conditions: for inhibition at 10 µM: 10 µM compound, read-out: Percentage inhibition at 10µM (PDE7A)
T2 construct: expressed in transfected cells; host or cells: AD293 (transient transfection)
T2 sequence (Q13946 whole entry): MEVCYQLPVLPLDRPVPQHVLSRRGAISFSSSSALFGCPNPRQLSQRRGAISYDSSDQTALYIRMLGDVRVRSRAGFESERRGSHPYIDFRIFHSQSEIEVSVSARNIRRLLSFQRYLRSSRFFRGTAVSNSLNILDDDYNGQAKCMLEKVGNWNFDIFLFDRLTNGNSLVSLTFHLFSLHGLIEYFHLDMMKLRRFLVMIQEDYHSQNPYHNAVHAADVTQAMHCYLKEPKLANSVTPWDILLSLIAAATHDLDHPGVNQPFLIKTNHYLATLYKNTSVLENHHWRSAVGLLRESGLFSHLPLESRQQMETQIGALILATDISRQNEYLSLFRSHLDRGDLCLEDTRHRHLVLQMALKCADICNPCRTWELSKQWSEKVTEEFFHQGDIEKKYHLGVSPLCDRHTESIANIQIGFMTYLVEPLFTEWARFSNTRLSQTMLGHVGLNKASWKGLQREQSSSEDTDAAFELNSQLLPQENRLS
Method: as §1

[3] = target: T3, A3 human receptor (A3R) (Homo sapiens, UniProt P0DMS8); test: Radioligand binding competition assay, human A3 receptor in transfected HeLa cells; conditions: 0.1 µM compound; read-out: percentage displacement at 0.1µM (A3R)
T3 construct: expressed in transfected cells; host or cells: HeLa
T3 sequence (P0DMS8 1-318): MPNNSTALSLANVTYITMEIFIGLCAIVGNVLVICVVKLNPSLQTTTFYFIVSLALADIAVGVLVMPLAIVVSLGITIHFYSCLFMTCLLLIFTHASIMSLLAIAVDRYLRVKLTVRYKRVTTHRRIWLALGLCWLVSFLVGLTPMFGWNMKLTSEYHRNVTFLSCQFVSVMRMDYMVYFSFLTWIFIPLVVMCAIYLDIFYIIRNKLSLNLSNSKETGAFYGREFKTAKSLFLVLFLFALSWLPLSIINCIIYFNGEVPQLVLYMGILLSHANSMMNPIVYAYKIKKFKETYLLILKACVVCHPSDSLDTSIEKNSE
Method: (§2) Pharmacological evaluation was performed in a radioligand binding competition assay, using A1, A2A, A2B, and A3 human receptors expressed in transfected CHO (A1), HeLa (A2A and A3), and HEK-293 (A2B) according to the procedure reported by Bosch et al..

[4] = target: T4, A2B human receptor (A2BR) (Homo sapiens, UniProt P29275); test: Radioligand binding competition assay, human A2B receptor in transfected HEK-293 cells; conditions: 0.1 µM compound; read-out: percentage displacement at 0.1µM (A2BR)
T4 construct: expressed in transfected cells; host or cells: HEK-293
T4 sequence (P29275 1-332): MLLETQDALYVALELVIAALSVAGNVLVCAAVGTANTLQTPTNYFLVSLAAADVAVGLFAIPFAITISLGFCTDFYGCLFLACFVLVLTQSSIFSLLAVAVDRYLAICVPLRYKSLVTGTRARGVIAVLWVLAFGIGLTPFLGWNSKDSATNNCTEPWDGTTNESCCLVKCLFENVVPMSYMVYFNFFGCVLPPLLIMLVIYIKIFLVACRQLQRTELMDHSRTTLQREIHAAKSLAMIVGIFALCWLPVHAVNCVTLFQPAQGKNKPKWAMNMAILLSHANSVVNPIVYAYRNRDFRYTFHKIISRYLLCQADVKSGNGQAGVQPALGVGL
Method: as §2

[5] = target: T5, human PDE9A (Homo sapiens, UniProt O76083); test: Phosphodiesterase activity, AD293 cells transiently transfected with human PDE9A; format: biochemical; conditions: 10 µM compound; read-out: Percentage inhibition at 10µM (PDE9A)
T5 construct: expressed in transfected cells; host or cells: AD293 (transient transfection)
T5 sequence (O76083 whole entry): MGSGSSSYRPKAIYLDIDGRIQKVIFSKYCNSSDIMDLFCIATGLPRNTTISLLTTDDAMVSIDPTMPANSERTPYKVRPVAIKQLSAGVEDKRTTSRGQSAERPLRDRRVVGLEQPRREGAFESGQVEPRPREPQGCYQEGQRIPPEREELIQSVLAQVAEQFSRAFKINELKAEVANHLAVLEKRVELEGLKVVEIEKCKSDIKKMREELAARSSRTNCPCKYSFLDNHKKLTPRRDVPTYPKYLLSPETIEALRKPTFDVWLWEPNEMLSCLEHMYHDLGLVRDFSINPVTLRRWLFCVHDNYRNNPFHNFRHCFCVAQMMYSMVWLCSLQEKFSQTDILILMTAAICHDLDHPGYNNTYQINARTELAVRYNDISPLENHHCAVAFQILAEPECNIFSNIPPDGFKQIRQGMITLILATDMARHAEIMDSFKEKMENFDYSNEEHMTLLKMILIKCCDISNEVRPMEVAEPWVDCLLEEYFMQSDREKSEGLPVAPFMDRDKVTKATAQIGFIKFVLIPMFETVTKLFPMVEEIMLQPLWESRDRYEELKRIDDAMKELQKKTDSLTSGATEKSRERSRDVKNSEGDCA
Method: as §1

[6] = target: T6, human PDE10A (Homo sapiens, UniProt Q9Y233); test: Phosphodiesterase activity, AD293 cells transiently transfected with human PDE10A; format: biochemical; conditions: for inhibition at 10 µM: read-out: % inhibition at 10 μM (PDE10A), 10 μM compound; for IC50: mean of 3 experiments in duplicate
T6 construct: expressed in transfected cells; host or cells: AD293 (transient transfection)
T6 sequence (Q9Y233 267-1055 limits assumed): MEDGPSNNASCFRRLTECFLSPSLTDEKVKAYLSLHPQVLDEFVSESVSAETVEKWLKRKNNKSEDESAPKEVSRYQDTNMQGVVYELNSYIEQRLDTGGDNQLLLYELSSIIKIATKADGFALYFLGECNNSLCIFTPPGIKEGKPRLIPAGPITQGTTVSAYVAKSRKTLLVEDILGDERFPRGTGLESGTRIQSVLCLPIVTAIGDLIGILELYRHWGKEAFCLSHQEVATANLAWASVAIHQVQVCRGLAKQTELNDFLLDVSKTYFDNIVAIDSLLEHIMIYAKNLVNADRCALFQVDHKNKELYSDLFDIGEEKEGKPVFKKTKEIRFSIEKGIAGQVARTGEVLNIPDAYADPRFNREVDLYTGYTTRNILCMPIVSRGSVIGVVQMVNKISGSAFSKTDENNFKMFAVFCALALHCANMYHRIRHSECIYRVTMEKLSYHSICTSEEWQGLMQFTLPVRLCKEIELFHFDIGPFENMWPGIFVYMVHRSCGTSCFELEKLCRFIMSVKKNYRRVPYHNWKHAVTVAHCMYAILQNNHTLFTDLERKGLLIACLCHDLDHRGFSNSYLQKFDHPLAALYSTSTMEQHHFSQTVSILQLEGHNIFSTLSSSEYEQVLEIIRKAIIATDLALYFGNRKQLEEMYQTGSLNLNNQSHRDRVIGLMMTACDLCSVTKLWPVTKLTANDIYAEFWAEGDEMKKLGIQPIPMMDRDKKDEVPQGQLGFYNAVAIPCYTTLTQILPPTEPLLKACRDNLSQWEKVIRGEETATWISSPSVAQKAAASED
Method: (§3) Bioactivity testing was performed using A1 and A2A human adenosine receptors expressed in transfected CHO (A1) and HeLa (A2A) cells, as well as AD293 cells that were transiently transfected with human PDE10A. Table 1 includes the list of synthesized 4,6-substituted 2-amino-pyridin-3-carbonitriles, along with their Ki values against A1R, A2AR, and IC50 values against PDE10A.
as §1

[7] = target: T7, A2A human adenosine receptor (A2AR) (Homo sapiens, UniProt P29274); test: Radioligand binding competition assay, human A2A receptor in transfected HeLa cells; conditions: for % displacement at 0.1 μM (A2AR): 0.1 µM compound; for Ki: Cheng-Prusoff approximation
T7 construct: expressed in transfected cells; host or cells: HeLa
T7 sequence (P29274 whole entry): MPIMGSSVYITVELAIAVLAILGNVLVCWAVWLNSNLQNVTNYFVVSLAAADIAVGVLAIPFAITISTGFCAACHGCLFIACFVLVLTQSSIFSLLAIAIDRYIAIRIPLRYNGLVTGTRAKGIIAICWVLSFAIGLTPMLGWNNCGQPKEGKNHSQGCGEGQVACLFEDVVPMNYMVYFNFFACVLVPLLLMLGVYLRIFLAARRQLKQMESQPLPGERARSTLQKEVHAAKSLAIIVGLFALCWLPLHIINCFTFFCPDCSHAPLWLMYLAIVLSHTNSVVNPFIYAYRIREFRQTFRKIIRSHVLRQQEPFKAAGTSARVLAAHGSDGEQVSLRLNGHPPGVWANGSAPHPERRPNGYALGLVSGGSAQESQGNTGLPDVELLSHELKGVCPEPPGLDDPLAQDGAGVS
Method: as §3, §2

[8] = target: T8, A1 human adenosine receptor (A1R) (Homo sapiens, UniProt P30542); test: Radioligand binding competition assay, human A1 receptor in transfected CHO cells; conditions: for Ki: Cheng-Prusoff approximation; for inhibition at 0.1 µM: 0.1 µM compound, read-out: % displacement at 0.1 μM (A1R)
T8 construct: expressed in transfected cells; host or cells: CHO
T8 sequence (P30542 1-326): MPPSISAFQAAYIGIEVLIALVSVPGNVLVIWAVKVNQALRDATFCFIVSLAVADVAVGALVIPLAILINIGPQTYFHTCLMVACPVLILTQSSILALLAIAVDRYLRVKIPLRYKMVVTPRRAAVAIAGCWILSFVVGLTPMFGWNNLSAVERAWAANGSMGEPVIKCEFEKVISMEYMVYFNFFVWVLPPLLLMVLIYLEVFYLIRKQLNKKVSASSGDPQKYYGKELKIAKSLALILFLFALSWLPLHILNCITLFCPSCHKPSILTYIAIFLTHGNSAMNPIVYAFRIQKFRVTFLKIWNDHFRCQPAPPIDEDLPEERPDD
Method: Pharmacological evaluation was performed in a radioligand binding competition assay, using A1, A2A, A2B, and A3 human receptors expressed in transfected CHO (A1), HeLa (A2A and A3), and HEK-293 (A2B) according to the procedure reported by Bosch et al. [78].

## N#Cc1c(-c2ccc3c(c2)OCO3)cc(-c2ccccc2)nc1N [Compound 7, 2-amino-4-(2H-1,3-benzodioxol-5-yl)-6-phenylpyridine-3-carbonitrile]
[1]
  inhibition at 10 µM: 8%
[2]
  inhibition at 10 µM: 22%
[3]
  inhibition at 0.1 µM: 2%
[4]
  inhibition at 0.1 µM: 1%
other
  melting point: 220 to 221 °C
[5]
  inhibition at 10 µM: 19%
[6]
  inhibition at 10 µM: 17%
[7]
  % displacement at 0.1 μM (A2AR): 5%
[8]
  Ki: 25 ± 2 nM

## N#Cc1c(C2CCCCC2)cc(-c2ccccc2)nc1N [Compound 8, 2-amino-4-cyclohexyl-6-phenylpyridine-3-carbonitrile]
[1]
  inhibition at 10 µM: 55%
[2]
  inhibition at 10 µM: 26%
[3]
  inhibition at 0.1 µM: 13%
[4]
  inhibition at 0.1 µM: 1%
other
  melting point: 125 to 126 °C
[5]
  inhibition at 10 µM: 30%
[6]; PDE10A IC50 versus lowest selectivity at PDE7B (55% inhibition at 10 µM)
  selectivity over all tested off-targets: twofold
[6]
  IC50: 2400 ± 200 nM
[7]
  % displacement at 0.1 μM (A2AR): 50%
[8]
  Ki: 294 ± 10 nM

## N#Cc1c(C2CCCCC2)cc(-c2ccccc2F)nc1N [Compound 9, 2-amino-4-cyclohexyl-6-(2-fluorophenyl)pyridine-3-carbonitrile]
[1]
  inhibition at 10 µM: 34%
[2]
  inhibition at 10 µM: 19%
[3]
  inhibition at 0.1 µM: 7%
[4]
  inhibition at 0.1 µM: 2%
other
  melting point: 126 to 127 °C
[5]
  inhibition at 10 µM: 1%
[6]
  inhibition at 10 µM: 68%
[7]
  % displacement at 0.1 μM (A2AR): 34%
[8]
  Ki: 84 ± 8 nM

## Cc1ccccc1-c1cc(C2CCCCC2)c(C#N)c(N)n1 [Compound 10, 2-amino-4-cyclohexyl-6-(2-methylphenyl)pyridine-3-carbonitrile]
[1]
  inhibition at 10 µM: 35%
[2]
  inhibition at 10 µM: 31%
[3]
  inhibition at 0.1 µM: 28%
[4]
  inhibition at 0.1 µM: 1%
other
  melting point: 120 to 121 °C
[5]
  inhibition at 10 µM: 9%
[6]
  IC50: 3700 ± 300 nM
[7]
  % displacement at 0.1 μM (A2AR): 18%
[8]
  inhibition at 0.1 µM: 17%

## N#Cc1c(C2CCCCC2)cc(-c2cccs2)nc1N [Compound 11, 2-amino-4-cyclohexyl-6-(thiophen-2-yl)pyridine-3-carbonitrile]
[1]
  inhibition at 10 µM: 45%
[2]
  inhibition at 10 µM: 33%
[3]
  inhibition at 0.1 µM: 26%
[4]
  inhibition at 0.1 µM: 1%
other
  melting point: 160 to 162 °C
[5]
  inhibition at 10 µM: 6%
[6]
  IC50: 1200 ± 100 nM
[7]
  % displacement at 0.1 μM (A2AR): 11%
[8]
  inhibition at 0.1 µM: 16%

## N#Cc1c(C2CCCCC2)cc(-c2ccsc2)nc1N [Compound 12, 2-amino-4-cyclohexyl-6-(thiophen-3-yl)pyridine-3-carbonitrile]
[1]
  inhibition at 10 µM: 60%
[2]
  inhibition at 10 µM: 29%
[3]
  inhibition at 0.1 µM: 14%
[4]
  inhibition at 0.1 µM: 2%
other
  melting point: 145 to 146 °C
[5]
  inhibition at 10 µM: 3%
[6]
  IC50: 900 ± 200 nM
[7]
  % displacement at 0.1 μM (A2AR): 60%
[8]
  inhibition at 0.1 µM: 44%

## N#Cc1c(C2CCCCC2)cc(-c2ccco2)nc1N [Compound 13, 2-amino-4-cyclohexyl-6-(furan-2-yl)pyridine-3-carbonitrile]
[1]
  inhibition at 10 µM: 41%
[2]
  inhibition at 10 µM: 44%
[3]
  inhibition at 0.1 µM: 19%
[4]
  inhibition at 0.1 µM: 3%
other
  melting point: 177 to 178 °C
[5]
  inhibition at 10 µM: 4%
[6]
  inhibition at 10 µM: 55%
[7]
  Ki: 49 ± 4 nM
[8]
  Ki: 70 ± 3 nM

## N#Cc1c(-c2ccccc2F)cc(-c2ccccc2F)nc1N [Compound 18, 2-amino-4,6-bis(2-fluorophenyl)pyridine-3-carbonitrile]
[1]
  inhibition at 10 µM: 36%
[2]
  inhibition at 10 µM: 25%
[3]
  inhibition at 0.1 µM: 1%
[4]
  inhibition at 0.1 µM: 1%
other
  melting point: 180 to 181 °C
[5]
  inhibition at 10 µM: 0%
[6]
  inhibition at 10 µM: 38%
[7]
  Ki: 948 ± 13 nM
[8]
  Ki: 78 ± 5 nM

## COc1ccccc1-c1cc(-c2ccccc2F)nc(N)c1C#N [Compound 19, 2-amino-6-(2-fluorophenyl)-4-(2-methoxyphenyl)pyridine-3-carbonitrile]
[1]
  inhibition at 10 µM: 42%
[2]
  inhibition at 10 µM: 49%
[3]
  inhibition at 0.1 µM: 1%
[4]
  inhibition at 0.1 µM: 2%
other
  melting point: 187 to 188 °C
[5]
  inhibition at 10 µM: 19%
[6]
  inhibition at 10 µM: 73%
[7]
  Ki: 338 ± 12 nM
[8]
  inhibition at 0.1 µM: 58%

## COc1ccccc1-c1cc(-c2ccco2)nc(N)c1C#N [Compound 21, 2-amino-6-(furan-2-yl)-4-(2-methoxyphenyl)pyridine-3-carbonitrile]
[1]
  inhibition at 10 µM: 30%
[2]
  IC50: 15100 nM
[3]
  inhibition at 0.1 µM: 23%
[4]
  inhibition at 0.1 µM: 2%
other
  melting point: 187 to 188 °C
[5]
  inhibition at 10 µM: 17%
[6]
  IC50: 10000 ± 600 nM
[7]
  Ki: 95 ± 4 nM
[8]
  inhibition at 0.1 µM: 38%

## N#Cc1c(-c2ccccc2Cl)cc(-c2ccc(O)cc2)nc1N [Compound 23, 2-amino-4-(2-chlorophenyl)-6-(4-hydroxyphenyl)pyridine-3-carbonitrile]
[1]
  IC50: 7300 nM
[2]
  IC50: 1800 nM
[3]
  inhibition at 0.1 µM: 1%
[4]
  inhibition at 0.1 µM: 8%
other
  melting point: 215 to 217 °C
[5]
  inhibition at 10 µM: 25%
[6]
  IC50: 4000 ± 300 nM
[7]
  % displacement at 0.1 μM (A2AR): 10%
[8]
  inhibition at 0.1 µM: 2%

## N#Cc1c(-c2ccc(O)cc2)cc(-c2ccc(O)cc2)nc1N [Compound 24, 2-amino-4,6-bis(4-hydroxyphenyl)pyridine-3-carbo-nitrile]
[1]
  inhibition at 10 µM: 38%
[2]
  inhibition at 10 µM: 47%
[3]
  inhibition at 0.1 µM: 1%
[4]
  inhibition at 0.1 µM: 1%
other
  melting point: 299 to 300 °C
[5]
  inhibition at 10 µM: 7%
[6]
  IC50: 3100 ± 400 nM
[7]
  % displacement at 0.1 μM (A2AR): 7%
[8]
  inhibition at 0.1 µM: 19%
